Data taken from US20230303613A1, “3′3′ CYCLIC DINUCLEOTIDES WITH AN ALKENYLENE” (Institute of Organic Chemistry and Biochemistry AS CR, v.v.i, priority 2020, published 2023).
Read-outs that look alike come from different tables or passages of the source.

Experiments:
AQ STING (G230A-R293Q) = molecular target: T1, AQ STING (G230A-R293Q) (Homo sapiens, UniProt Q86WV6, G230A/H232R/R293Q); assay: Differential Scanning Fluorimetry with AQ STING; format: binding; conditions: thermal shift vs apoprotein, 150 µM CDN, truncated human AQ STING 0.1 mg/ml; for ΔTm at 150 µM: read-out: DSF ΔTm AQ STING
T1 construct: 8xHis (N, cleaved yes); SUMO (N, cleaved yes); made in house; host or cells: E. coli Rosetta-gami B (DE3)
Description: (§1) Purified PCR products were cleaved with restriction enzymes BamHI (cat. # R0136S, NEB, Ipswich, USA) and NotI (cat. # R0189S, NEB, Ipswich, USA) and cloned into the pSUMO vector linearized with the identical enzymes.
(§2) Bacterial pellets were re-suspended in ice-cold lysis buffer containing 50 mmol.1^-1 TrisCl (cat. # T1503, Sigma Aldrich, Czech Republic) pH 8.0, 300 mmol.1^-1 NaCl, 3 mmol.1^-1 β-mercaptoethanol (cat. # M6250, Sigma Aldrich, Czech Republic), 10% glycerol (cat. # G5516, Sigma Aldrich, Czech Republic) and 20 mmol.1^-1 imidazole (cat. # I5513, Sigma Aldrich, Czech Republic) using Dounce homogenizer. DNase I (cat. # D5025, Sigma Aldrich, Czech Republic) and RNase A (cat. # R6513, Sigma Aldrich, Czech Republic) were added (final concentration 50 µg/ml) together with MgCl2 (final concentration 5 mmol.l^-1) to the homogenate and bacteria were lysed using French Press G-M™ High-Pressure Cell Press Homogenizer (1500 psi, 3 cycles). […] The resin was poured into a chromatography column, washed with 50 ml buffer A (50 mmol.1^-1 TrisCl (pH 8.0), 800 mmol.1^-1 NaCl, 3 mmol.1^-1 β-mercaptol; 10% glycerol; 20 mmol.1^-1 imidazole) and 8-His-SUMO tagged STING proteins were eluted with 15 ml buffer A containing 300 mmol.1^-1 imidazole. […] Proteins were concentrated with Amicon® Ultra-15 10 K device (cat. # UFC901008, Merck Millipore, Billerica, USA) and flash frozen in liquid N2.
(§3) 20 µL solutions of the reaction mixtures were pipetted in triplicates into 96 well optical reaction plates and thermal denaturation of samples were performed on real time PCR cycler (LightCycler® 480 Instrument II - Roche, Basel, Switzerland). The first derivative of the thermal denaturation curves was performed to calculate denaturing temperatures of STING - CDN complexes and STING apoproteins. The thermal shift for each CDN was calculated by subtracting the average denaturing temperature of STING apoprotein from the average denaturing temperature of STING CDN complex.

WT STING [1] = molecular target: T2, WT STING (Homo sapiens, UniProt Q86WV6, H232R); assay: Digitonin assay using 293T wtSTING-FL reporter cells; format: cell-based; conditions: 293T wtSTING-FL cells; 30 minutes in Digitonin buffer, then 5 hours; ISRE firefly luciferase reporter
Description: (§4) Two complementary oligonucleotides of the sequence […] […] […] […] […] The oligonucleotides were mixed in equal molar amounts, hybridized, and cleaved by restriction endonucleases HindIII (cat. #. R0104S, NEB, Ipswich, USA) and BglII (cat. # R0144S, NEB, Ipswich, USA). Ultimately, they were ligated into plasmid pGL4.27 (cat. # E6651, Promega, Madison, USA) linearized with the same enzymes. As result the sequence with four ISRE sites was placed upstream of the minimum promoter of firefly luciferase reporter gene.
(§5) After 5 minutes incubation at room temperature (RT), 250 µL of the mixture was added dropwise to the cells in one well. Cells were incubated 36 hours at 37° C. with 5% CO2, and then detached with 0.05% Trypsin and 0.22 g/L EDTA (both cat. # L0941, Biowest, Riverside, USA).
(§6) Transfected cells were seeded onto poly-D-lysine coated six well plates at density 50,000 cells per 1 cm^2 in DMEM medium with high glucose containing 10% heat inactivated FBS, 30 µg/mL blasticidin (cat. # ant-bl-05, InvivoGen, San Diego, USA), 0.06 mg/ml Penicillin G and 0.1 mg/ml Streptomycin Sulfate (both cat. #. L0018, Biowest, Riverside, USA). The medium was replenished every 3 - 4 days until visible colonies of cells resistant to blasticidin were formed.
(§7) Blasticidin resistant cells stably expressing WT STING were further transfected with […] plasmid following the same procedure as described above. […] Homogeneous culture of stably double transfected cells was prepared by limiting dilution of cells in 96 well plates and wells with cells were selected that originated from a single cell.
The medium was removed next day and three fold serial dilutions of compounds in Digitonin buffer containing 50 mmol.l^-1 HEPES (cat. # H3375, Sigma Aldrich, Czech Republic) pH 7.0, 100 mmol.1^-1 KCl, 3 mmol.l^-1 MgCl2, 0.1 mmol.l^-1 DTT (cat. # D0632, Sigma Aldrich, Czech Republic), 85 mmol.1^-1 Sucrose (cat. # S7903, Sigma Aldrich, Czech Republic), 0.2% BSA (cat. # A2153, Sigma Aldrich, Czech Republic), 1 mmol.l^-1 ATP (cat. # A1852, Sigma Aldrich, Czech Republic), 0.1 mmol.1^-1 GTP (cat. # G8877, Sigma Aldrich, Czech Republic), and 10 µg/mL Digitonin A (cat. # D141, Sigma Aldrich, Czech Republic) were added to the cells. The buffer was removed after 30 minutes incubation at 37° C. with 5% CO2, the cells were washed once with 100 µl of cultivation medium, and 100 µl of medium was added to each well. The plates with cells were incubated for 5 hours at 37° C. with 5% CO2, 50µl of the medium was removed and 30 µl of ONE-Glo^Tm Luciferase Assay System reagent (cat. # E6120, Promega, Madison, USA) was added to each well. Luminescence was read on Synergy H1 (Biotek, Winooski, USA).
Target sequence in this assay (Q86WV6 whole entry H232R): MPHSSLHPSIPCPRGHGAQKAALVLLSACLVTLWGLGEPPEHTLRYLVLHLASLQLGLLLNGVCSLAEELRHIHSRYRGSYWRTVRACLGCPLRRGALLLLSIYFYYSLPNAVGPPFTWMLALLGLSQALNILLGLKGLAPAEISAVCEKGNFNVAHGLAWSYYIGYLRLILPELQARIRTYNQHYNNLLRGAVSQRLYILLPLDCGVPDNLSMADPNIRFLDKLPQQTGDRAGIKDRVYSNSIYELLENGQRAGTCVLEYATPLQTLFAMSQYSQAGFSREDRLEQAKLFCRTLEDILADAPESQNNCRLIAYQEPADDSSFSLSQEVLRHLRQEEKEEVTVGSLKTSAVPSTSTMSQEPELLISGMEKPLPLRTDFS

WT STING [2] = molecular target: T2, WT STING; assay: 293T WT STING standard reporter assay; format: cell-based; conditions: 293T wtSTING-FL cells; 7 hours with compound, no digitonin; ISRE firefly luciferase reporter
Description: as §4, §5, §6, §7
Target sequence in this assay (Q86WV6 whole entry H232R): as above
The medium was removed next day and three-fold serial dilutions of compounds in 100 µl medium were added to the cells. The plates with cells were incubated for 7 hours at 37° C. with 5% CO2. After 50 µl of the medium was removed, 30 µl of ONE-Glo^Tm Luciferase Assay System reagent (cat. # E6120, Promega, Madison, USA) was added to each well and luminescence was read on Synergy H1 (Biotek, Winooski, USA).

WT STING [3] = molecular target: T2, WT STING; assay: Differential Scanning Fluorimetry with WT STING; format: binding; design: 8xHis (N, cleaved yes); SUMO (N, cleaved yes); made in house; host or cells: E. coli Rosetta-gami B (DE3); conditions: thermal shift vs apoprotein, 150 µM CDN, truncated human WT STING 0.1 mg/ml; for ΔTm at 150 µM: read-out: DSF ΔTm WT STING
Description: as §1, §2, §3
Target sequence in this assay (Q86WV6 140-343 H232R): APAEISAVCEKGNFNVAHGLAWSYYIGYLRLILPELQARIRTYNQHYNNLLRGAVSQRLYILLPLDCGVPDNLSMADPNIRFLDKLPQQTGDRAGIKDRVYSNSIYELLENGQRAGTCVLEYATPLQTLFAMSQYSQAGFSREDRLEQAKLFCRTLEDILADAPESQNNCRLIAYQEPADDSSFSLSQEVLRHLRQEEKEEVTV

[4] = tested on: peripheral blood mononuclear cell (PBMC); assay: Peripheral blood mononuclear cell assay; format: cell-based; conditions: PBMC, 1h with compound, washed, 15 hour incubation
Experimental: Selected compounds were tested in an in vitro peripheral blood mononuclear cell (PBMC) assay. Freshly isolated PBMCs were seeded into U-shaped shaped 96-well plates at desity 500,000 cells per well in 50 µl of RPMI 1640 medium supplemented with 10% heat inactivated FBS. Serially dilluted tested compounds were added to wells in 50 µl of cultivation medium and cell were incubated with compounds for 1h at 37° C. with 5% CO2. Plates with cells were then spun 500 g for 5 minutes and medium was removed. Cells were washed twice with the cell culture medium by the use of centrifugation and gently resuspended in 100 µl medium without compounds. After 15 hour incubation at 37° C. with 5% CO2, the cell culture medium was collected and the levels of interferon-alpha (INF-α), interferon-gamma (INF-γ) and tumor necrosis factor-alpha (TNF-α) were determined with ProcartaPlex Assays (ThermoFisher, Waltham, USA) and MAGPIX System (Merck KGaA, Darmstadt, Germany).

T1 sequence (Q86WV6 140-343 G230A/H232R/R293Q): as the sequence (Q86WV6 140-343 H232R) above, with G91A, R154Q counted along it

| Structure (SMILES) | DSF ΔTm AQ STING (AQ STING (G230A-R293Q)) [°C] | EC50 (WT STING [1]) [µM] | EC50 (WT STING [2]) [µM] | DSF ΔTm WT STING (WT STING [3]) [°C] | ΔTm at 150 µM (AQ STING (G230A-R293Q)) [°C] | EC50 ([4]; IFN-α level in medium, read-out: PBMC EC50 IFN-α) [µM] | EC50 ([4]; IFN-γ level in medium, read-out: PBMC EC50 IFN-γ) [µM] | EC50 ([4]; TNF-α level in medium, read-out: PBMC EC50 TNF-α) [µM] | ΔTm at 150 µM (WT STING [3]) [°C] |
| --- | --- | --- | --- | --- | --- | --- | --- | --- | --- |
| Nc1nc2c(ncn2[C@@H]2O[C@@H]3COP(=O)(O)O[C@@H]4[C@H](O)[C@@H](COP(=O)(O)O[C@@H]2[C@@H]3O)O[C@H]4n2cnc3c(N)ncnc32)c(=O)[nH]1 [2′2′-cGAMP, reference compound] | 19.4 | 0.03 | 10.2 | 11.5 | – | – | – | – | – |
| Nc1ncnc2c1ncn2[C@@H]1O[C@@H]2/C=C/P(=O)(O)O[C@H]3[C@@H](F)[C@H](n4cnc5c(N)ncnc54)O[C@@H]3COP(=O)(O)O[C@H]2[C@H]1F [Compound 53] | – | 0.03 | 10.1 | – | 11.6 | 120 | 36 | 54 | 6.9 |
| Nc1nc(N)c2ncn([C@@H]3O[C@@H]4COP(=O)(O)O[C@H]5[C@@H](O)[C@H](n6cnc7c(=O)[nH]c(N)nc76)O[C@@H]5/C=C\P(=O)(O)O[C@H]4[C@H]3F)c2n1 [Compound 65, (1S,6R,8R,9R,10R,13Z,15R,17R,18R)-17-(2-amino-6-oxo-6,9-dihydro-1H-purin-9-yl)-8-(2,6-diamino-9H-purin-9-yl)-9-fluoro-3,12,18-trihydroxy-2,4,7,11,16-pentaoxa-3λ^5,12λ^5-diphosphatricyclo[13.3.0.0^6,^10]octadec-13-ene-3,12-dione] | – | 5 | – | – | 8 | – | – | – | 3.1 |
